We go through 14 compounds from patent publication US8642284B1, “Methods for identifying agents that alter NAD-dependent deacetylation activity of a SIR2 protein” (Massachusetts Institute of Technology, priority 1999, dated 2014).

One data set concerns the target T1, Sir2p (Saccharomyces cerevisiae, UniProt P06700).
T1 construct: purified recombinant yeast (rSir2p) protein, mouse Sir2 (mSir2α) proteins and vector controls; 6×His; made in house; host or cells: E. coli BL21 (DE3), pET28a
In words: NAD-dependent deacetylation of di-acetylated H3 peptide by recombinant yeast Sir2p (HPLC). The class given is biochemical. The following applies: for function in the deacetylation of the H3 peptide by Sir2p: 1 mM NAD derivative; for inhibition of the deacetylase activity in a reaction with NAD: not shown. How it is done: (§1) The typical reaction of Sir2 deacetylase activity was performed in 50 μl of buffer containing 50 mM Tris-HCl [pH 9.0], 4 mM MgCl2, 0.2 mM DTT, variable concentration of cold nicotinamide adenine dinucleotide (NAD) or NAD derivatives (SIGMA®, MO), 5-10 μg of the purified recombinant Sir2 proteins, and 10 μg of the histone H3 N-terminal tail peptide (amino acid 1-20) di-acetylated at positions 9 and 14 (Upstate Biotechnology™, NY). […] To detect the ADP-ribosylation activity, 8 μCi of NAD 5′-[α-^32P]triphosphate (˜1000 Ci/mmol, Amersham Pharmacia Biotech™, NJ) was added to the same reaction containing 1 μM cold NAD. Histone H3 protein (4 μg) (Roche Molecular Biochemicals™, IN) were used for this assay. All reaction mixtures were incubated at room temperature for 1 hr. Trichostatin A and coumermycin A1 (SIGMA™) were prepared in dimethylsulfoxide (DMSO, SIGMA®), and 5 μl of solvent or inhibitor was added to the reactions prior to adding Sir2 proteins.
(§2) After the incubation, the products were precipitated at −20° C. overnight by adding 50 μl of distilled water and 25 μl of 100% trichloroacetic acid (TCA) solution. For high pressure liquid chromatography (HPLC), the precipitates were reconstituted in 5% CH3CN and 0.1% trifluoroacetic acid (TFA) and run in the gradient concentration between 0.05% TFA and 0.043% TFA plus 80% CH3CN on Hewlett Packard Model 1100 HPLC system with 214TP52 column (VYDAC, CA). The chromatograms at the absorbance of 210 nm were digitally recorded and analyzed by Hewlett Packard ChemStation™ system (version A.06.03 [509]). Fractions of samples were collected every 1 min by Gilson™ Fraction Collector Model 203. Peptide sequencing was done by the Applied Biosystems PROCISE® 494 HT protein sequencing system. PTH amino acid chromatograms were recorded and analyzed by the ABI Model 610A2.1 data integration/analysis system.
The experiments employed purified recombinant Sir2p in a reaction with NAD and a peptide of the histone H3 amino-terminal tail (residues 1-20) di-acetylated at lysines 9 and 14. These lysines are hypoacetylated in silenced chromatin and mutations at these positions to glycine greatly reduce silencing in vivo (Thompson, J. S., et al., Nature 369: 245-247 (1994)). The products of a reaction containing 5 μg of recombinant yeast Sir2p (79 pmoles) (FIG. 8a), 10 μg of the H3 peptide (4.2 nmoles) increasing concentrations of NAD were analyzed s by high pressure liquid chromatography (HPLC).

Data set [1] concerns di-acetylated H3 peptide (residues 1-20 acetylated on Lys9 and Lys14). In words: deacetylase activity of recombinant Sir2p and Sir2p core domain mutants on H3 peptide. As to conditions: for NAD-dependent histone H3 deacetylase activity, of wild type activity: 5 μg recombinant protein. It counts as biochemical. As for the experimental part:
as §1, §2
(§3) BL21 with SIR2 or the sir2 mutants subcloned into pET28a (NOVAGEN®) were induced with 1 mM IPTG for 1 hr. The recombinant proteins were purified by Nickel-NTA column under native condition. Ribosylation and deacetylation assays were performed using 1 μg of recombinant protein for the ribosylation assay and 5 μg for the deacetylation assay.
A set of mutations in highly conserved residues of the core domain of SIR2 were constructed by site-directed mutagenesis (FIG. 17a) and cloned into vectors, along with the wild type, to allow expression of the recombinant proteins in E. coli or expression of single-copy genes from the native SIR2 promoter in S. cerevisiae. These 6×his (SEQ ID NO: 39) tagged proteins were purified from E. coli by a Ni-NTA column (FIG. 17b) and analyzed for the NAD-dependent histone H3 deacetylase activity in an assay with a di-acetylated H3 peptide (residues 1-20 acetylated on Lys9 and Lys14) and 1 mM NAD. HPLC separation of the reaction products yields five peaks of which 1, 2, a portion of 3 and 4 are deacetylated species of peptide (FIG. 15).

For a further data set, the system named is histone H3. In words: ADP-ribosyltransferase activity of Sir2p core domain mutants. The class given is biochemical. The following applies: histone H3 substrate; relative to wild type. How it is done:
as §1
Electron-spray mass spectroscopy (also referred to herein as mass spectroscopy) was done on the PE Sciex Model API365™ system. Matrix assisted laser desorption/ionization (MALDI) mass spectroscopy can also be used. The electron-spray mass spectroscopy data were analyzed by the BioMultiView Program™ (version 1.3.1). To detect the ADP-ribosylated intact H3 protein, the pellets were dissolved in 15 μl of Leammli sample buffer, boiled for 1.5 min and electrophoresed in a 10-20% gradient SDS-PAGE gel. The gel was stained with Coomassie Brilliant Blue to check equal loading of histones, dried, and exposed to KODAK® X-OMAT film. To analyze the ADP-ribosylated H3 peptides, 10 μl of each reaction mixture was spotted on a cellulose TLC plate (EM Science™, NJ). The chromatography was performed for 9-10 hrs in a TLC chamber containing the 65:5:3:2:29 mixture of isobutyric acid, pyridine, acetic acid, butanol and water (Scheidtmann, K. H., et al., J. Virol. 44:116-133 (1982)). The plate was dried and exposed to KODAK® X-OMAT film. The peptide spots were checked by ninhydrin staining.
as §3
The Sir 2 mutant proteins were also analyzed for ADP-ribosyltransferase activity using the histone H3 substrate, (FIG. 17c). […] The same pattern of activities was observed using a peptide of the N-terminal tail of histone H3 (not shown).

Another data set concerns the target T2, mSir2α (Mus musculus, UniProt Q923E4).
T2 construct: ADP-ribosylase activity of bacterial recombinant full-length proteins of ySir2p and mSir2α was determined in in vitro assays; 6×His; made in house; host or cells: E. coli BL21 (DE3) pLysS with an extra copy of arginine tRNA gene, pET28a
T2 sequence (Q923E4 1-737): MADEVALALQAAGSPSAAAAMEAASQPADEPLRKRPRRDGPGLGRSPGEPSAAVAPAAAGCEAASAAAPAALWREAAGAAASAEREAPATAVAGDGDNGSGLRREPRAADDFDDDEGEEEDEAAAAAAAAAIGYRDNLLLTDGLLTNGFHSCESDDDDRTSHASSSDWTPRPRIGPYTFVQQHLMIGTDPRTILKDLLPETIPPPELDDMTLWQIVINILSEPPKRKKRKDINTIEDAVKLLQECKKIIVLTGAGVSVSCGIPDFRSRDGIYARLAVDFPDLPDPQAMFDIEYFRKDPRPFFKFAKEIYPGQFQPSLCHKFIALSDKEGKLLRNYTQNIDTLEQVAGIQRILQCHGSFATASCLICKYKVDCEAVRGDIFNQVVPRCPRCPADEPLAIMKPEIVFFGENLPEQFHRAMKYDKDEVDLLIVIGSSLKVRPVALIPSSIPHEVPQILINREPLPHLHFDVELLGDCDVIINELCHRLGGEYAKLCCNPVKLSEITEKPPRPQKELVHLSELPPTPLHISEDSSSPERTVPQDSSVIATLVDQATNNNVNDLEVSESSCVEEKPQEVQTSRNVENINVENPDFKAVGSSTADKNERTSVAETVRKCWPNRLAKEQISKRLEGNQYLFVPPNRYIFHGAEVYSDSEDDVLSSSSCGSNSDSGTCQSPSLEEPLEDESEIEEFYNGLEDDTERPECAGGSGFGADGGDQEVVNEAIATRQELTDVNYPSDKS
In words: ADP-ribosylation assay, sensitivity of mSir2α to poly- and mono-ADP-ribosylation inhibitors (histone H2B, 32P-NAD). The class given is biochemical. The following applies: for inhibition of the ADP-ribosylation activity of the mSir2α protein: 40, 200 and 1000 μM. As for the experimental part: The typical reaction was performed in 50 or 100 μl of the buffer containing 5 mM Tris-HCl [pH8.0 or 9.0], 4 mM MgCl2, 0.2 mM DTT, 1 μM cold β-NAD^+ (SIGMA®) and 8 μCi nicotinamide adenine dinucleotide 5′[α-^32P]triphosphate (NAD) as a donor of ADP-ribose (˜1000 Ci/mmol, Amersham Pharmacia Biotech). To check the sensitivity to poly- or mono-ADP-ribosylation inhibitors, 3-aminobenzamide (ICN Pharmaceuticals, CA), benzamide, novobiocin and coumermycin A1 (SIGMA®) were added to the reactions prior to adding Sir2 proteins, respectively. The wild type or mutant recombinant proteins (0.5-1 μg for ySir2p and 10 μg of mSir2α) were added with 4 μg of each histone purchased from Roche Molecular Biochemicals (Indianapolis, Ind.). For the peptide experiments, 5-10 μg of unacetylated or acetylated N-terminal tail peptides (amino acids 1-20) of H3 and H4 purchased from Upstate Biotechnology™ (Lake Placid, N.Y.) were used as substrates of the yeast and mouse Sir2 recombinant proteins.
To analyze histone modification, 25 μl of 100% trichloroacetic acid (TCA) solution was mixed to the reaction mixture and left on ice for 15 min. The protein precipitates were centrifuged at 4° C. and washed with 5 or 20% TCA solution twice. The pellets were dissolved in 15 μl of Leammli's sample buffer and boiled for 1.5 min. The proteins were electrophoresed in a 10-20% gradient SDS-PAGE gel. The gel was stained with COOMASSIE® Brilliant Blue R-250 (GibcoBRL Life Technologies™, Frederick, Md.) to check equal loading of histones, dried, and exposed to KODAK® X-OMAT film.
The sensitivity of the ADP-ribosylase activity of mSir2α to poly ADP-ribosylation inhibitors (3-aminobenzamide and benzamide) and mono-ADP-ribosylation inhibitors (novobiocin and coumermycin A1) was evaluated. (FIG. 4F).

Data set [2] relates to mono-ADP-ribosyltransferases. The following applies: literature value; read-out: reported IC50 concentration; cited from earlier work.

Entries after “also recorded” stand apart in the source; their conditions may differ.

T1 sequence (P06700 whole entry): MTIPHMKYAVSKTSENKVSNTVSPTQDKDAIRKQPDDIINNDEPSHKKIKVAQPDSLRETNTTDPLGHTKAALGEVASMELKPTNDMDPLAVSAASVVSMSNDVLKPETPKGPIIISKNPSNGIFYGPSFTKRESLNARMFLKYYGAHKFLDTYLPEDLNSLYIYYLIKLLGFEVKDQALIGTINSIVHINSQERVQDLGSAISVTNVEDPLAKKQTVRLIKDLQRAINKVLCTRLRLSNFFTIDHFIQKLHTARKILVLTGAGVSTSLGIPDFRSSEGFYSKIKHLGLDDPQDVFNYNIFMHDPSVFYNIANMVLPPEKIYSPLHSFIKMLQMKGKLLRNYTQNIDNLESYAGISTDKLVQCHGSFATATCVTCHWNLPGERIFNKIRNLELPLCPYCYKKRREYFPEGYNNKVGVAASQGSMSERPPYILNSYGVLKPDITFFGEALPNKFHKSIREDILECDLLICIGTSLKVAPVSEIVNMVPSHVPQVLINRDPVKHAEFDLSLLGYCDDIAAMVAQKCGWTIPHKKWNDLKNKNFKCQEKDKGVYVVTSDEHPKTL

`NC(=O)C1=CN([C@@H]2O[C@H](COP(=O)(O)OP(=O)(O)OC[C@H]3O[C@@H](n4cnc5c(N)ncnc54)[C@H](O)[C@@H]3O)[C@@H](O)[C@H]2O)C=CC1` [NADH]: at Sir2p, the “function in the deacetylation of the H3 peptide by Sir2p” value (“function in the deacetylation” below) is listed as “functioned weakly” and the “inhibition of the deacetylase activity in a reaction with NAD” value was “neither NADH nor NADP significantly inhibited”.
Take “mutant 270: 6×His tagged yeast Sir2p core domain mutant, Gly-270 mutated to alanine”: the “NAD-dependent histone H3 deacetylase activity, of wild type activity” value in data set [1] (1 mM NAD) was 80%. The compound further showed an ADP-ribosyltransferase activity in the data set with histone H3 of 7%.
Consider “Sir2p: purified recombinant 6×His-tagged yeast Sir2 protein”, for which the input peptide deacetylated result in data set [1] (areas under HPLC peaks 1, 2 and 4, 1 mM NAD) is recorded as “at least 27%”. Besides, the “acetyl lysines at positions 9 and 14 deacetylated” value in data set [1] (peak 4, Edmann degradation, in the presence of NAD) is given as 23-27%.
With “mutant 345: 6×His tagged yeast Sir2p core domain mutant, Asn-345 mutated to alanine”, the “NAD-dependent histone H3 deacetylase activity, of wild type activity” value in data set [1] (1 mM NAD) was “inactive”. Also, the ADP-ribosyltransferase activity result in the data set with histone H3 was “completely inactive”.
In the case of “mutant 275: 6×His tagged yeast Sir2p core domain mutant, Arg-275 mutated to alanine”, the “NAD-dependent histone H3 deacetylase activity, of wild type activity” value in data set [1] (1 mM NAD) was determined as 67%. Also, in the data set with histone H3, the ADP-ribosyltransferase activity result is “about as active as wild type”.
As to “mutant 261: 6×His tagged yeast Sir2p core domain mutant, Thr-261 mutated to alanine”, the “NAD-dependent histone H3 deacetylase activity, of wild type activity” value in data set [1] (1 mM NAD) is listed as 17%. This compound gave an ADP-ribosyltransferase activity in the data set on histone H3 of 4%.
For `NC(=O)c1ccccc1` [benzamide], the “inhibition of the ADP-ribosylation activity of the mSir2α protein” value at mSir2α is “did not inhibit”.
For “mutant 347: 6×His tagged yeast Sir2p core domain mutant, Asp-347 mutated to alanine”, in data set [1] (1 mM NAD), the “NAD-dependent histone H3 deacetylase activity, of wild type activity” value was “inactive”. In the data set with histone H3, the ADP-ribosyltransferase activity entry is “completely inactive”.
For `CO[C@@H]1[C@@H](OC(N)=O)[C@@H](O)[C@H](Oc2ccc3c(O)c(NC(=O)c4ccc(O)c(CC=C(C)C)c4)c(=O)oc3c2C)OC1(C)C` [novobiocin], the “inhibition of ADP-ribosylation by mSir2α” value on mSir2α (200 μM) is listed as “strongly inhibited”. In addition, the IC50 in data set [2] was 370 µM.
For the compound “mutant 271: 6×His tagged yeast Sir2p core domain mutant, Iso-271 mutated to alanine”, in data set [1] (1 mM NAD), the “NAD-dependent histone H3 deacetylase activity, of wild type activity” value turned out to be 36%. Further, the ADP-ribosyltransferase activity in the data set with histone H3 is given as 8%.
As for `NC(=O)c1ccc[n+]([C@@H]2O[C@H](COP(=O)([O-])OP(=O)(O)OC[C@H]3O[C@@H](n4cnc5c(N)ncnc54)[C@H](OP(=O)(O)O)[C@@H]3O)[C@@H](O)[C@H]2O)c1` [NADP], on Sir2p, the “function in the deacetylation” value is on record as “did not function significantly” and the “inhibition of the deacetylase activity in a reaction with NAD” value is “neither NADH nor NADP significantly inhibited”.
As for `NC(=O)c1cccc(N)c1` [3-aminobenzamide], on mSir2α, the “inhibition of the ADP-ribosylation activity of the mSir2α protein” value is “did not inhibit”.
As for `CC(/C=C/C(=O)NO)=C\[C@@H](C)C(=O)c1ccc(N(C)C)cc1` [TSA, trichostatin A], the “inhibition of deacetylation by Sir2p” value at Sir2p (400 nM) is listed as “does not affect; also recorded: totally incapable of inhibiting”.
On to `NC(=O)C1=CN([C@@H]2O[C@H](COP(=O)(O)OP(=O)(O)OC[C@H]3O[C@@H](n4cnc5c(N)ncnc54)[C@H](OP(=O)(O)O)[C@@H]3O)[C@@H](O)[C@H]2O)C=CC1` [NADPH], for which, on Sir2p, the “function in the deacetylation” value is “did not function significantly”.
